Measured values: publication PMC6150237, “Study of Absorption Characteristics of the Total Saponins from Radix Ilicis Pubescentis in an In Situ Single-Pass Intestinal Perfusion (SPIP) Rat Model by Using Ultra Performance Liquid Chromatography (UPLC)” (Molecules : A Journal of Synthetic Chemistry and Natural …, 2017)

Columns and labels:
[1] = Stability in outflow perfusate matrix; format: physicochemical; conditions: 37 °C
Method: The chromatographic method was validated for specificity, linearity and LOQ, accuracy and precision, extraction recovery, matrix, and stability. The validation parameters were studied using drug-free (blank) intestinal perfusate mixture that had passed through intestinal segments, and had been collected from five different rats. Specificity was evaluated by analyzing the intestinal perfusion blank and perfusion blank spiked with analytes to investigate the potential interferences of intestinal perfusate endogenous with the analytes; calibration and quality control (QC) samples were obtained by spiking mixed working standard solution in blank intestinal perfusion buffer. Calibration curves were constructed in the range of 20–1000 μg·mL^−1 for C1 (20, 40, 100, 200, 400, and 1000 μg·mL^−1), and 8.0–400.0 μg·mL^−1 for C2, C3, C4, DC1 and DC2 (8.0, 16.0, 40.0, 80.0, 160.0, and 400.0 μg·mL^−1). A weighted (1/x^2) linear least-squares linear regression method was used to determine the slope, intercept, and correlation coefficient; LOQ was determined by injection a series of standard solutions until the signal-to-noise (S/N) ratio was 10; Precision and accuracy were assessed at low, medium, and high concentration levels (40, 200, and 800 μg·mL^−1 for C1; 16, 80, and 320 μg·mL^−1 for C2, C3, C4, DC1, and DC2). Intra-day data was obtained by assaying six replicates at each concentration level in a day, and inter-day data was determined by analyzing QC samples in duplicates during three separate and successive days; The extraction recovery of the six analytes and IS from the outflow perfusate matrix was determined by comparing the mean peak areas of six replicates processed QC samples at each concentration level spiked before extraciton with those from outflow perfusate spiked after extraction; Matrix effect was assessed by comparing the mean peak areas of six replicates at each concentration level dissolved in the post-extracted intestinal perfusate matrix with those of neat standards (C1, C2, C3, C4, DC1, DC2, and IS) spiked in methanol at corresponding concentration levels; Stabilities of C1, C2, C3, C4, DC1, and DC2 in outflow perfusate matrix (12 h, 37 °C), processed samples (auto-sampler condition for 24 h), after freeze-thaw cycle and long-term cold storage (−20 °C, 14 days) were assayed by QC samples in six replicates at three concentration level.

[2] = test system: rat small intestine (duodenum, jejunum, ileum); assay: In situ single-pass intestinal perfusion (SPIP), saponins administrated in MDQ-TS form; format: in vivo; design: key: -: no absorption
Method: (§1) MDQ-TS perfusion samples at low, middle, and high concentration levels of 1.25, 2.5, and 5.0 mg·mL^−1 were prepared by separately dissolving MDQ-TS in the minimum amount of DMSO and diluted with K-R buffer solution. The amount of DMSO was 0.5% in the final perfusion solutions. C1, C2, C3, C4, DC1, and DC2 perfusion samples with the concentration equivalent to the amount contained in 2.5 mg·mL^−1 of MDQ-TS were individually prepared in the same way. Verapamil, amantadine and EDTA were directly dissolved in the MDQ-TS perfusate with terminal concentrations of 200 μmol·L^−1, 2.5 mmol·L^−1, and 2.5 mmol·L^−1, accordingly, and used for investigating the mechanisms involved for absorption.
(§2) In situ single-pass intestinal perfusion (SPIP) studies were performed using an experimental design adapted from the literature with some modifications. Briefly, male Sprague-Dawley rats weighing 180–220 g were acclimatized for at least one week before the experiment, and fasted for 18 h with free access to water before the perfusion experiment. Rats were anesthetized with an intraperitoneal injection of urethane (30 mg·kg^−1 body weight), and kept on a homeothermic blanket to maintain normal body temperature. The abdomen was opened with a midline longitudinal incision, and three segments of rat intestine (duodenum, jejunum, and ileum) of approximately 10 cm each were carefully cannulated on two ends with plastic tubing. Initially, the perfusion solution free of drug (37 °C) was pumped by peristaltic pump (BT100-1F, Longer Pump Co., Baoding, China) through the cannulated segments at a flow rate of 1 mL/min for approximately 30 min in order to clean out any residual debris. Secondly, the perfusion solution containing a known concentration of substance (C1, C2, C3, C4, DC1, DC2, and MDQ-TS) was perfused at 37 °C through the intestinal lumen at a constant flow rate of 0.2 mL/min. The first 20 min of period corresponds to steady state, i.e., when the substance is in equilibrium with the intestinal membrane. After steady state, samples were collected from distal portion of duodenum, jejunum and ileum at 10 min intervals (0–10, 10–20, 20–30, 30–40, 40–50, 50–60 min) in pre-weighted vials. Samples were immediately frozen at −20 °C until analysis by validated UPLC. During the experiment, care was taken to avoid disturbance of the circulatory system and the exposed segment was covered with a piece of sterilized gauze to keep it warm and moist by frequent application of warm (37 °C) saline. The intestinum tenue maintained its viability and intact state without disrupting the blood supply throughout the experimental period. Finally, animals were sacrificed after depth anesthesia by intraperitoneal injection of urethane, according to protocols for euthanasia in experimental animals. After death, the intestinal segment was removed for measurements of length and inside diameter.
(§3) The net water flux in the in situ perfusion studies (water absorption and efflux in the intestinal segment) was determined by gravimetric method. The effective absorption rate constant (Ka) and effective apparent permeability (Papp) of compounds in the intestinal segments were calculated according to the following mathematical expression:(1) Ka=(1−CoutQout/CinQin)Q/V (2) Papp=−Qln(CoutQout/CinQin)/2πrl where Cin and Cout are the concentration of test drug in the effluent perfusate through the inlet and outlet tube (μg·mL^−1), respectively. Qin and Qout represent the inlet and outlet volume of effluent perfusate (mL), respectively. Q is the volume flow rate of perfusion (mL·h^−1). V is the volume of the intestinal segment concerned (mL). 2πrl is the area of the mass transfer surface of intestinal segment concerned (cm^2).

rat duodenum = assay: SPIP of MDQ-TS with or without EDTA (tight junction modulator); format: in vivo; conditions: MDQ-TS 2.5 mg/mL, EDTA 2.5 mmol·L^−1
Method: as §1, §2
as §3, with “(cm^2). […]” for “(cm^2).”

[3] = MDQ-TS form 1.25 mg·mL^−1, duodenum, symbol
[4] = MDQ-TS form 1.25 mg·mL^−1, ileum, symbol
[5] = MDQ-TS form 1.25 mg·mL^−1, jejunum, symbol
[6] = MDQ-TS form 2.5 mg·mL^−1, duodenum, n = 5
[7] = MDQ-TS form 2.5 mg·mL^−1, ileum, n = 5
[8] = MDQ-TS form 2.5 mg·mL^−1, jejunum, n = 5
[9] = MDQ-TS form 5.0 mg·mL^−1, duodenum, n = 5
[10] = MDQ-TS form 5.0 mg·mL^−1, ileum, n = 5
[11] = MDQ-TS form 5.0 mg·mL^−1, jejunum, n = 5
[12] = administrated in MDQ-TS form, summary bound (except DC2 in 1.25 mg·mL^−1 MDQ-TS group)
[13] = MDQ-TS form 1.25 mg·mL^−1, duodenum, n = 5
[14] = MDQ-TS form 1.25 mg·mL^−1, ileum, n = 5
[15] = MDQ-TS form 1.25 mg·mL^−1, jejunum, n = 5

C[C@@H]1O[C@@H](O[C@H]2[C@H](O[C@H]3[C@H](O[C@H]4CC[C@]5(C)[C@H]6CC=C7[C@H]8[C@](C(=O)O[C@@H]9O[C@H](CO)[C@@H](O)[C@H](O)[C@H]9O)(CC[C@H](C)[C@@]8(C)O)CC[C@@]7(C)[C@]6(C)CC[C@H]5C4(C)C)OC[C@@H](O)[C@@H]3O)O[C@H](CO)[C@@H](O)[C@@H]2O)[C@H](O)[C@H](O)[C@H]1O [DC2, ilexoside O]
stability in outflow perfusate matrix [1]: at least 12 h | Ka [2, 3]: - | Papp [2, 3]: - | Ka [2, 4]: - | Papp [2, 4]: - | Ka [2, 5]: - | Papp [2, 5]: - | Ka [2, 6]: 0.62 ± 0.13 ×10^−2 min^−1 | Papp [2, 6]: 0.16 ± 0.06 ×10^−2 cm·min^−1 | Ka [2, 7]: 1.54 ± 0.85 ×10^−2 min^−1 | Papp [2, 7]: 0.19 ± 0.08 ×10^−2 cm·min^−1 | Ka [2, 8]: 1.23 ± 0.46 ×10^−2 min^−1 | Papp [2, 8]: 0.21 ± 0.08 ×10^−2 cm·min^−1 | Ka [2, 9]: 1.27 ± 0.44 ×10^−2 min^−1 | Papp [2, 9]: 0.25 ± 0.16 ×10^−2 cm·min^−1 | Ka [2, 10]: 1.14 ± 0.45 ×10^−2 min^−1 | Papp [2, 10]: 0.19 ± 0.07 ×10^−2 cm·min^−1 | Ka [2, 11]: 1.73 ± 0.66 ×10^−2 min^−1 | Papp [2, 11]: 0.26 ± 0.17 ×10^−2 cm·min^−1 | Papp [2, 12]: > 0.0012 cm/min | Ka increase in comparison with non-EDTA added group (rat duodenum): ~3.0 fold | Papp increase in comparison with non-EDTA added group (rat duodenum): ~2.1 fold

ilexsaponin B3 [DC1]
stability in outflow perfusate matrix [1]: at least 12 h | Ka [2, 13]: 0.56 ± 0.17 ×10^−2 min^−1 | Papp [2, 13]: 0.13 ± 0.05 ×10^−2 cm·min^−1 | Ka [2, 14]: 0.59 ± 0.35 ×10^−2 min^−1 | Papp [2, 14]: 0.22 ± 0.13 ×10^−2 cm·min^−1 | Ka [2, 15]: 0.46 ± 0.21 ×10^−2 min^−1 | Papp [2, 15]: 0.23 ± 0.15 ×10^−2 cm·min^−1 | Ka [2, 6]: 1.76 ± 0.44 ×10^−2 min^−1 | Papp [2, 6]: 0.34 ± 0.08 ×10^−2 cm·min^−1 | Ka [2, 7]: 1.65 ± 0.33 ×10^−2 min^−1 | Papp [2, 7]: 0.16 ± 0.07 ×10^−2 cm·min^−1 | Ka [2, 8]: 1.99 ± 0.49 ×10^−2 min^−1 | Papp [2, 8]: 0.35 ± 0.08 ×10^−2 cm·min^−1 | Ka [2, 9]: 1.53 ± 0.55 ×10^−2 min^−1 | Papp [2, 9]: 0.30 ± 0.13 ×10^−2 cm·min^−1 | Ka [2, 10]: 1.21 ± 0.58 ×10^−2 min^−1 | Papp [2, 10]: 0.21 ± 0.11 ×10^−2 cm·min^−1 | Ka [2, 11]: 2.05 ± 0.72 ×10^−2 min^−1 | Papp [2, 11]: 0.32 ± 0.19 ×10^−2 cm·min^−1 | Papp [2, 12]: > 0.0012 cm/min | Ka increase in comparison with non-EDTA added group (rat duodenum): ~1.4 fold | Papp increase in comparison with non-EDTA added group (rat duodenum): ~1.4 fold
